Laboratory results reported in ChEMBL document CHEMBL4627246, “Pyroglutamide-Based P2X7 Receptor Antagonists Targeting Inflammatory Bowel Disease” (J Med Chem, 2020).

What was measured:
Type in all cases: cell-based
[1] = system: SK-MEL-5; assay: Cytotoxicity against human SK-MEL-5 cells assessed as effect on cell growth at 10 uM incubated for 48 hrs by sulforhodamine B assay; settings: sk-mel-5, 48 h
[2] = system: HL-60(TB); assay: Cytotoxicity against human HL-60(TB) cells assessed as effect on cell growth at 10 uM incubated for 48 hrs by sulforhodamine B assay
[3] = system: UACC-62; assay: Cytotoxicity against human UACC62 cells assessed as effect on cell growth at 10 uM incubated for 48 hrs by sulforhodamine B assay; settings: uacc-62, 48 h
[4] = system: M14; assay: Cytotoxicity against human M14 cells assessed as effect on cell growth at 10 uM incubated for 48 hrs by sulforhodamine B assay; settings: m14, 48 h
[5] = system: MOLT-4; assay: Cytotoxicity against human MOLT4 cells assessed as effect on cell growth at 10 uM incubated for 48 hrs by sulforhodamine B assay; settings: molt-4, 48 h
[6] = system: NCI-H226; assay: Cytotoxicity against human NCI-H226 cells assessed as effect on cell growth at 10 uM incubated for 48 hrs by sulforhodamine B assay; settings: nci-h226, 48 h
[7] = system: HCT-116; assay: Cytotoxicity against human HCT116 cells assessed as effect on cell growth at 10 uM incubated for 48 hrs by sulforhodamine B assay; settings: hct-116, 48 h
[8] = system: HCC 2998; assay: Cytotoxicity against human HCC2998 cells assessed as effect on cell growth at 10 uM incubated for 48 hrs by sulforhodamine B assay; settings: hcc 2998, 48 h
[9] = system: HOP-62; assay: Cytotoxicity against human HOP62 cells assessed as effect on cell growth at 10 uM incubated for 48 hrs by sulforhodamine B assay; settings: hop-62, 48 h
[10] = system: SK-MEL-2; assay: Cytotoxicity against human SK-MEL-2 cells assessed as effect on cell growth at 10 uM incubated for 48 hrs by sulforhodamine B assay; settings: sk-mel-2, 48 h
[11] = system: Hs-578T; assay: Cytotoxicity against human Hs 578T cells assessed as effect on cell growth at 10 uM incubated for 48 hrs by sulforhodamine B assay
[12] = system: CCRF-CEM; assay: Cytotoxicity against human CCRF-CEM cells assessed as effect on cell growth at 10 uM incubated for 48 hrs by sulforhodamine B assay
[13] = system: SNB-75; assay: Cytotoxicity against human SNB75 cells assessed as effect on cell growth at 10 uM incubated for 48 hrs by sulforhodamine B assay; settings: snb-75, 48 h
[14] = system: NCI-H522; assay: Cytotoxicity against human NCI-H522 cells assessed as effect on cell growth at 10 uM incubated for 48 hrs by sulforhodamine B assay; settings: nci-h522, 48 h
[15] = system: HOP-92; assay: Cytotoxicity against human HOP92 cells assessed as effect on cell growth at 10 uM incubated for 48 hrs by sulforhodamine B assay; settings: hop-92, 48 h
[16] = system: OVCAR-3; assay: Cytotoxicity against human OVCAR3 cells assessed as effect on cell growth at 10 uM incubated for 48 hrs by sulforhodamine B assay; settings: ovcar-3, 48 h
[17] = system: SR; assay: Cytotoxicity against human SR cells assessed as effect on cell growth at 10 uM incubated for 48 hrs by sulforhodamine B assay
[18] = system: A549; assay: Cytotoxicity against human A549/ATCC cells assessed as effect on cell growth at 10 uM incubated for 48 hrs by sulforhodamine B assay; settings: a549, 48 h
[19] = system: SF-539; assay: Cytotoxicity against human SF539 cells assessed as effect on cell growth at 10 uM incubated for 48 hrs by sulforhodamine B assay; settings: sf-539, 48 h
[20] = system: MDA-MB-435; assay: Cytotoxicity against human MDA-MB-435 cells assessed as effect on cell growth at 10 uM incubated for 48 hrs by sulforhodamine B assay; settings: mda-mb-435, 48 h

Measured: Activity

O=C(NCc1ccc(Cl)cc1Cl)[C@@H]1CCC(=O)N1C(c1ccc(Cl)cc1)c1ccc(Cl)cc1
Non-Toxic: all assays above
